{"source": "patent US6346527B1", "about": "“Guanidine derivatives” (Fujisawa Pharmaceutical Co., Ltd., priority 1998, dated 2002)", "molecular_target": "T1, Na^+/H^+ exchange in cells (Rattus norvegicus, UniProt P26431)", "T1 construct": "The cells were dissociated by gentle strokes, and the resulting suspension was filtrated through six layers of surgical gauze; from tissue; host or cells: thymus cells (thymocytes) of a male SD rat", "T1 sequence (P26431 whole entry)": "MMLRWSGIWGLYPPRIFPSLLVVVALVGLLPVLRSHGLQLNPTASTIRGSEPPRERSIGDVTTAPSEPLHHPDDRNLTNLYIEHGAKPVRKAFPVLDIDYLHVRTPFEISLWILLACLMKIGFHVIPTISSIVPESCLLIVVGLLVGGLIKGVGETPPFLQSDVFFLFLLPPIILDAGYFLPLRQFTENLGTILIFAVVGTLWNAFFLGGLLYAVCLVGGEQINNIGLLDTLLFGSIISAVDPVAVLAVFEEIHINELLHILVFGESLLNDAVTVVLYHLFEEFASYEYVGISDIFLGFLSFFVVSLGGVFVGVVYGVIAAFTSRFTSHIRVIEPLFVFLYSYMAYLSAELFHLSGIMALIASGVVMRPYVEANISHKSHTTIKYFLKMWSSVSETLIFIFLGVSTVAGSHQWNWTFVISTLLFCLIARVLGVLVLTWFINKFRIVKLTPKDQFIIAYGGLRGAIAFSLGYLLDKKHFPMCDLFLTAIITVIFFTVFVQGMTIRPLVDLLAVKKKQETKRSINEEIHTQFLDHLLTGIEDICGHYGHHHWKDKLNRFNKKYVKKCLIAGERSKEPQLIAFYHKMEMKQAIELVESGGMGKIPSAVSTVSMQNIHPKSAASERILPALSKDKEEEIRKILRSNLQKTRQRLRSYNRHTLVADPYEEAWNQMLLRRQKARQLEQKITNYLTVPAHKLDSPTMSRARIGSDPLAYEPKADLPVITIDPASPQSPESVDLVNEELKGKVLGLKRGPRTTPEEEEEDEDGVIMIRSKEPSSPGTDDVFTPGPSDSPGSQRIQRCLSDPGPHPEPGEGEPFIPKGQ", "assay": "Inhibitory activity on Na^+/H^+ exchange in cells", "assay_type": "cell-based", "conditions": "rat (male SD) thymus cells; initial increase in intracellular pH (BCECF fluorescence) after adding NaCl (final 100 mM), 37° C.", "description": "[2] Inhibitory activity on Na^+/H^+ exchange in cells\nProcedure was carried out according to a similar manner to the method described in Enzymology 173, 777 (1989).\nCell preparation: One male SD strain rat weighing 250-300 g was sacrificed with the blow on the head. Then, the thymus was removed into ice-cold NaCl medium (140 mM sodium chloride, 1 mM potassium chloride, 1 mM calcium chloride, 1 mM magnesium chloride, 10 mM glucose and 20 mM N-2-hydroxyethylpiperazine-N′-2-ethanesulfonic acid (HEPES)—pH 7.3), cut in small fragments, and transferred to glass homogenizer. […]\nAssay: The pellet was washed with Na-free buffer (140 mM Trimethyl ammonium, 4 mM KCl, 1 mM CaCl2, 1 mM MgSO4, 1 mM NaH2PO4, 18 mM glucose, 20 mM HEPES (pH 7.4)), then incubated with 16 μM of acetoxymethyl ester of 2′, 7′-bis(2-carboxyethyl)-5,6-carboxyfluorescein (BCECF-AM, Calbiochem Co.) and 20 mM NH4Cl at 37° C. for 30 minutes. […] Intracellular pH was measured at 37° C. with a spectrofluorometer (FS100, Kowa company, Japan) using the ratio of the emission (530 nm) obtained at 490 nm excitation wavelengths. […] The BCECF fluorescence signals were calibrated by titration with 1 M 2-(N-morpholino)ethanesulfonic acid (MES) after permeabilization of the cells with 0.5% Triton.", "note": "Structures can show the parent of a compound that is named as a salt."}
{"smiles": "N=C(N)NC(=O)C1=Cc2cccc(/C=C/C(=O)O)c2OCC1", "note": "[(a), [9-[(E)-(2-Carboxyvinyl)]-2,3-dihydro-1-benzoxepin-4-carbonyl]guanidine hydrochloride]", "values": [{"measurement": "IC50", "value": "< 100", "unit": "nM"}]}
